Laboratory results as given in paper PMC9644404, “Mechanistic Insights into the Activation of Lecithin–Cholesterol Acyltransferase in Therapeutic Nanodiscs Composed of Apolipoprotein A-I Mimetic Peptides and Phospholipids” (Molecular Pharmaceutics, 2022).

Legend:
[1] = system: recombinant human lecithin cholesterol acyltransferase (LCAT); assay: LCAT activity assay (DHE esterification in DMPC/DHE/peptide nanodiscs); format: biochemical; conditions: relative to 22A, 30 min; for LCAT activity (in words): pH 7.4, 37 °C, fluorescence
Description: (§1) ApoA-I mimetic peptides 22A ([…]), 22A-K22Q ([…]), and 22A-R7Q ([…]) were obtained from Peptide Protein Research Ltd. (Fareham, UK). 1,2-Dimyristoyl-sn-glycerol-3-phosphocholine (DMPC), 1,2-dipalmitoyl-sn-glycerol-3-phosphocholine (DPPC), and ergosta-5,7,9,(11),22-tetra-3beta-ol (dehydroergosterol, DHE) were purchased from Avanti Polar Lipids Inc. (Alabaster, AL). Recombinant human lecithin cholesterol acyltransferase (LCAT) was synthesized by ProSpec-Tany TechnoGene Ltd. (East Brunswick, NJ). Cholesterol oxidase (COx) was obtained from Sigma-Aldrich (St. Louis, MO).
The LCAT activity assay relies on the integration of DHE in the nanodisc structure as a substrate for LCAT. DHE is a naturally occurring fluorescent sterol analog; the presence of three conjugated double bonds in the steroid ring system gives this probe a slight fluorescence in the near-UV region of the spectrum.[42] As a consequence of the acyltransferase activity of LCAT, DHE in the PL bilayer is stored in the inner core of sHDL as DHE-ester. The esterification of DHE causes a shift in the sterol analog emission wavelength from 372 to 425 nm; this shift, together with the use of COx, which selectively renders the unesterified DHE nonfluorescent, allows the exclusive detection and quantification of the DHE-ester. This provides information about the LCAT–sHDL interaction and activity.[43],[44] sHDL containing the fluorescent sterol DHE for LCAT activity assay was prepared via thermal cycling method. In a glass vial, DMPC and DHE in chloroform were combined at a 9:1 molar ratio and were first dried with Rotavapor R-200 at room temperature for 1–2 h and then an additional 1 h under nitrogen flow at room temperature. […] After this, the plates went through a second round of incubation at 37 °C with gentle shaking (250 rpm/h) for 1 h to extinguish the fluorescence of unesterified DHE. After re-equilibrating the plate at room temperature, DHE fluorescence was detected at an excitation wavelength of 325 nm and an emission wavelength of 425 nm using Varioskan LUX (Thermo Scientific, Waltham, MA). […]

[2] = system: LCAT; assay: QCM: LCAT binding to peptide-lipid nanodiscs on sensor; design: species or system human; conditions: for adsorption of LCAT on the discs (in words): 10 nM LCAT in PBS, 20 °C, versus 22A; for estimated number of LCAT enzymes bound per disc: calculated from adsorbed mass after LCAT injection (10 nM LCAT in PBS, 75 μL/min, 17 min, 20 °C), DMPC nanodiscs, three measurements
Description: as §1
Before QCM measurements, the LCAT stock solution was prepared by dissolving 10 μg of LCAT in 500 μL of PBS. The solution was centrifuged (14 000g) twice through Amicon Ultra-0.5, 10 kDa cutoff filter (Sigma-Aldrich) for buffer exchange and purification. The retentate was diluted to a total volume of 500 μL (PBS) after each step. Prepared 20 μg/mL (∼430 nM) LCAT solution was stored in −20 °C before further use.
(§2) Impedance-based QCM instrument QCM-Z500 (KSV Instruments Ltd., Helsinki, Finland) was used for the measurements. The temperature was kept constant at 20 °C. Before measurements, silica-coated sensors (Q-Sense Inc./Biolin Scientific, Västra Frölunda, Sweden) were flushed with 70% (v/v) ethanol and ultrapure water, dried under nitrogen flow, and oxygen-plasma-treated (PDC-002; Harrick Plasma, Ithaca, NY) for 5 min at 29.6 W and 133–173 Pa. Samples were injected into the flow channel using a peristaltic pump system. After the baseline of the signal at different frequency overtones (3, 5, and 7) was stabilized in PBS, a nanodisc surface was formed by flowing nanodisc solution (0.15 mg/mL in PBS, 150 μL/min) on the sensor for 5 min, until the signal was again stabilized. Flow speed was then decreased to 75 μL/min for 5 min of flow with PBS to ensure a solid, uniform nanodisc surface. Next, 10 nM (0.47 μg/mL) LCAT was then injected through the flow channel at 75 μL/min for 17 min. Then, the running solution was again changed to PBS to see the frequency signal stabilize. All measurements were performed three times; between measurements, the sensor and the flow channel were cleaned in situ by 3 min sequential injections of 20 mM CHAPS, 2% (v/v) Hellmanex, 70% (v/v) ethanol, and ultrapure water at 150 μL/min. Frequency overtone signals were normalized, baseline corrected, and averaged for each measurement.

[3] = QCM: adsorption of nanodiscs on silica sensor; format: physicochemical; conditions: nanodiscs 0.15 mg/mL in PBS, 150 μL/min, 5 min, 20 °C, versus 22A
Experimental: as §2, with “Frequency overtone signals were normalized, baseline corrected, and averaged for each measurement.” left out

[4] = system: LCAT; conditions: cited from earlier work
Description: Therefore, this has long been a sought-after property of synthetic HDL-mimetic nanodiscs and apoA-I mimetic peptides. The nativelike maturation of the nanodiscs by lecithin–cholesterol acyltransferase (LCAT) has been regarded as a desired feature as it would lead to the esterification of free CHOL and the formation of hydrophobic cholesteryl ester (CE)-rich core. […] The ... || To investigate the location, conformation, and dynamics of apoA-Imimetic peptides in nanodiscs in silico, we complexed coarse-grained models of DMPC lipids with models of apoA-Imimetic peptides 22A and 22A-K and simulated the systems up to 80 μs, measured in the effective Martini force field time. To prepare the systems, 200 lipids and 28 peptides were placed randomly into the simulation box, and after a short vacuum simulation to compress them, the systems were solvated. Equilibrated nanodiscs formed rapidly after starting the production runs. The proteolytic removal of C-terminal lysine of 2 ... || (+ 2 further places)

[5] = system: LCAT; conditions: cited from earlier work; remark: listed apart in the source
Description: The ... || The formation of acyl intermediate of LCAT requiring the entry of PCs into the active site is another important factor in LCAT activity. […] We have also ...

Sequence: PVLDLFQELLNELLEALKQKLK [22A-R7Q, 22A variant with charge neutralization of residue R7]
- LCAT activity (in words) [1]: nearly identical activity with 22A
- adsorption of LCAT on the discs (in words) [2]: reduced the adsorption of LCAT on the discs
- estimated number of LCAT enzymes bound per disc [2]: one LCAT was attached to every five nanodiscs
- adsorption of nanodiscs on the sensor (in words) [3]: decreased adsorption of nanodiscs on the sensor

Sequence: PVLDLFRELLNELLEALKQKL [22A-K, 22A without C-terminal lysine K22]
- decrease of CHOL esterification on removal of K22 ([4]; 22A without C-terminal K22 versus 22A): ~60%
- LCAT activation on removal of C-terminal lysine (in words) ([4]; proteolytic removal in serum): significantly reduces LCAT activation
- effect on phospholipolytic action of LCAT on removal of K22 (in words) [5]: no effect on phospholipolytic action mediated by LCAT

Sequence: PVLDLFRELLNELLEALKQKLK [22A, apoA-I mimetic peptide 22A (Esperion Therapeutics, ESP24218)]
- estimated number of LCAT enzymes bound per disc [2]: approximately one LCAT was bound to every two nanodiscs
- LCAT activation (in words) ([4]; versus native apoA-I): activate LCAT nearly as well as native apoA-I

Sequence: PVLDLFRELLNELLEALKQKLQ [22A-K22Q, 22A variant with charge neutralization of residue K22]
- decrease of LCAT activity ([1]; lipid:peptide 2:1 w/w, DHE 0-35 μM, LCAT 7 μg/mL, PBS + 1 mM EDTA + 60 μM albumin pH 7.4, 37 °C, fluorescence 325/425 nm, triplicate, two independent experiments): 50%
- LCAT activity (in words) [1]: decreased the LCAT activation potency
- adsorption of LCAT on the discs (in words) [2]: reduced the adsorption of LCAT on the discs
- estimated number of LCAT enzymes bound per disc [2]: one LCAT was attached to every five nanodiscs
- adsorption of nanodiscs on the sensor (in words) [3]: decreased adsorption of nanodiscs on the sensor
